From patent US20240018138A1, “PYRIDO[4,3-b]INDOLE DERIVATIVES AND THEIR USE AS PHARMACEUTICALS” (Ventus Therapeutics U.S., Inc., priority 2020, published 2024) come the findings set out here.

Structures are written as SMILES.

The target in the assay is h-cGAS (Homo sapiens (Human), UniProt Q8N884). Description: h-cGAS Kinase-Glo assay. It is filed as biochemical. The conditions noted are these: Kinase-Glo Max; 40 nM h-cGAS, 100 uM ATP, 100 uM GTP, 25 nM dsDNA, 2 h incubation. (Kinase-Glo measures the ATP left after a reaction by luminescence.)
h-cGAS, sequence (Q8N884 whole entry): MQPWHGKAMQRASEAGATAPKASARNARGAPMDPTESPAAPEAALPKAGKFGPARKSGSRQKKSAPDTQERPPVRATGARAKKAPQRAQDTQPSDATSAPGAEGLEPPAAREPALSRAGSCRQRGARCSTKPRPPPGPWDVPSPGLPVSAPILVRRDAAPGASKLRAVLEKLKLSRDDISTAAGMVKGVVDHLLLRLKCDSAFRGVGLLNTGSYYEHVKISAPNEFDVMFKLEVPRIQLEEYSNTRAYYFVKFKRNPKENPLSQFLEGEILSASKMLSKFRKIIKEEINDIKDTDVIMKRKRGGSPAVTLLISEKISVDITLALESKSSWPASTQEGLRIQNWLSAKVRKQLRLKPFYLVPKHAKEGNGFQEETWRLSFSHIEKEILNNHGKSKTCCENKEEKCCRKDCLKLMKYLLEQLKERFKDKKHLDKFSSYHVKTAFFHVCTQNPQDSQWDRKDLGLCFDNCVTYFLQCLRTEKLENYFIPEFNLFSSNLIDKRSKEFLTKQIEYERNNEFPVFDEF
The term IC50 denotes the point on the concentration scale where inhibition reaches its midpoint. Higher therefore signals weaker potency. In turn, `COCC(=O)N1Cc2c([nH]c3c(Cl)c(Cl)ccc23)CC1Cc1ccccc1` (centres unmarked) [Compound 113] registered an IC50 of 4230 nM.

For the molecule `COCC(=O)N1Cc2c([nH]c3c(Br)c(Cl)ccc23)C[C@@H]1C` [Compound 123], the IC50 was 133 nM. Against the preceding molecule, the IC50 is about 32-fold lower. In the case of `COCC(=O)N1Cc2c([nH]c3c(Cl)c(Cl)cc(-c4ccn(C)n4)c23)C[C@H]1C` [Compound 116], 157 nM corresponded to half-maximal inhibition (IC50). This IC50 and that of the molecule before are within 1.5-fold of each other. As for `COCC(=O)N1[C@@H](C)Cc2[nH]c3c(Cl)c(Cl)ccc3c2[C@@H]1C` [Compound 108], the figure is 62.3 nM; as for `COCC(=O)N1Cc2c([nH]c3c(Cl)c(Cl)ccc23)C2CCCCC21` (centres unmarked) [Compound 110], 2230 nM; as for `CC[C@H]1Cc2[nH]c3c(Cl)c(Cl)ccc3c2CN1C(=O)COC` [Compound 119], 470 nM. Take `COCC(=O)N1Cc2c([nH]c3c(F)c(Cl)ccc23)C[C@H]1C` [Compound 120]: it took 361 nM to reach half-maximal inhibition (IC50). The IC50 values of the last two molecules are within 1.5-fold of each other. In the case of `COCC(=O)N1Cc2c([nH]c3c(Br)c(Cl)ccc23)C[C@H]1C` [Compound 121], the IC50 was found to be 7630 nM. As to `COCC(=O)N1CCc2[nH]c3c(Cl)c(F)ccc3c2[C@H]1C` [Compound 107], it took 51.8 nM to reach half-maximal inhibition (IC50). In turn, `COCC(=O)N1[C@H](C)Cc2[nH]c3c(Cl)c(Cl)ccc3c2[C@@H]1C` [Compound 109] returned an IC50 of 15.1 nM.

Take `COCC(=O)N1Cc2c([nH]c3c(Cl)c(Cl)cc(-c4ccn(C)n4)c23)C[C@@H]1C` [Compound 117]: half-maximal inhibition (IC50) required 221 nM. On to `COCC(=O)N1Cc2c([nH]c3c(Cl)c(F)ccc23)C[C@H]1C` [Compound 124], for which the IC50 stood at 1330 nM. Against the preceding molecule, the IC50 is about 6-fold higher. Consider `COCC(=O)N1[C@H](C)Cc2[nH]c3c(Cl)c(Cl)ccc3c2[C@@H]1C` [Compound 104], for which half-maximal inhibition (IC50) required 51.7 nM. Against the preceding molecule, the IC50 is about 26-fold lower. `COCC(=O)N1Cc2c([nH]c3c(Cl)c(Cl)ccc23)C[C@H]1C` [Compound 112] showed a 50% inhibitory concentration (IC50) of 236 nM. As for `COCC(=O)N1Cc2c([nH]c3c(F)c(Cl)ccc23)C[C@@H]1C` [Compound 118], 316 nM corresponded to half-maximal inhibition (IC50). This IC50 and that of the molecule before are within 1.5-fold of each other. `COCC(=O)N1Cc2c([nH]c3c(Cl)c(C)ccc23)C[C@@H]1C` [Compound 125] returned an IC50 of 756 nM. `COCC(=O)N1CCc2[nH]c3c(Cl)c(Cl)cc(-c4ccn(C)n4)c3c2[C@H]1C` [Compound 105] yielded an IC50 of 3820 nM. Against the preceding molecule, the IC50 is about 5.1-fold higher. For `COCC(=O)N1CCc2[nH]c3c(Cl)c(Cl)cc(-c4ccn(C)n4)c3c2[C@@H]1C` [Compound 106], it took 4550 nM to reach half-maximal inhibition (IC50). The IC50 values of the last two molecules are within 1.5-fold of each other.

`COCC(=O)N1Cc2c([nH]c3c(Cl)c(Cl)ccc23)C[C@H]1C(F)(F)F` [Compound 115] registered an IC50 of 1380 nM. This IC50 is about 3.3-fold lower than that of the molecule before. `COCC(=O)N1Cc2c([nH]c3c(Cl)c(Br)ccc23)C[C@H]1C` [Compound 122] displayed an IC50 of 205 nM. Turning to `COCC(=O)N1Cc2c([nH]c3c(Cl)c(Cl)ccc23)C[C@@H]1C` [Compound 111], the IC50 was 401 nM. Compared with the last molecule, the IC50 is about 2-fold higher.

`COCC(=O)N1Cc2c([nH]c3c(F)c(Br)ccc23)C[C@H]1C` [Compound 126]: the IC50 turned out to be 387 nM. This IC50 and that of the molecule before are within 1.5-fold of each other. `COCC(=O)N1Cc2c([nH]c3c(Cl)c(Cl)ccc23)C[C@@H]1C(C)C` [Compound 114] came in with an IC50 of 718 nM.
